Assays:
Assay type in all cases: ADME, Microsome
[1] = Metabolic stability in mouse liver microsomes at 1 uM assessed as compound remaining incubated for 60 mins followed by NADPH generating system addition and measured by LC-MS/MS analysis; details: read-out: Stability
[2] = Clearance in mouse liver microsomes at 1 uM incubated for 60 mins followed by NADPH generating system addition and measured by LC-MS/MS analysis; details: read-out: CLH
[3] = Clearance in human liver microsomes at 1 uM incubated for 60 mins followed by NADPH generating system addition and measured by LC-MS/MS analysis; details: read-out: CLH
[4] = Half-life in human liver microsomes at 1 uM incubated for 60 mins followed by NADPH generating system addition and measured by LC-MS/MS analysis
[5] = Half-life in mouse liver microsomes at 1 uM incubated for 60 mins followed by NADPH generating system addition and measured by LC-MS/MS analysis

| remaining at 1 h, 1 µM [1] | microsomal CLint at 1 µM [2] | microsomal CLint at 1 µM [3] | half-life at 1 µM [4] | half-life at 1 µM [5] | Compound |
| --- | --- | --- | --- | --- | --- |
| 105% | – | – | – | – | Cc1ccc2c(c1)[C@H](O)CC[C@H]2NC(=O)c1ccc(C(F)(F)F)[nH]c1=O |
| – | 12.1 µL/min/mg | 15.3 µL/min/mg | 1.51 h | 1.9 h | CCC[C@H]1C[C@@H](NC(=O)c2ccc(C(F)(F)F)[nH]c2=O)c2cc(C)ccc2N1 |
| – | 41.2 µL/min/mg | 35.4 µL/min/mg | 0.652 h | 0.56 h | CCC[C@H]1Oc2ccc(C)cc2[C@@H]1NC(=O)c1ccc(C(F)(F)F)[nH]c1=O |
| – | 19.2 µL/min/mg | 17 µL/min/mg | 1.37 h | 1.2 h | CCC[C@@H]1C[C@@H](NC(=O)c2ccc(C(F)(F)F)[nH]c2=O)c2cc(C)ccc2N1 |

Reference: ChEMBL document CHEMBL5052845 (2021)
